What follows are molecules tested on human PBMC T cells (assay: cells). Conditions: Homo sapiens, 72 h, read-out: T-cells (IC50).
Type: cell-based

Row | Structure (SMILES) | IC50
1 | CCC(CN(CC)CC)OC(=O)NCc1cccc(NC(=O)Nc2ccc(-c3cnco3)c(OC)c2)c1 (stereo not drawn) [Compound 87] | < 100 nM
2 | COc1cc(NC(=O)Nc2cccc(CNC(=O)O[C@@H](CO)CSC)c2)ccc1-c1cnco1 [Compound 88] | 100 to 1000 nM
3 | COc1cc(NC(=O)Nc2cccc(CNC(=O)OC(CCC#N)C(F)(F)F)c2)ccc1-c1cnco1 (stereo not drawn) [Compound 90] | 100 to 1000 nM
4 | CCC(C[N+]1([O-])CCS(=O)(=O)CC1)OC(=O)NCc1cccc(NC(=O)Nc2ccc(-c3cnco3)c(OC)c2)c1 (stereo not drawn) [Compound 91] | > 1000 nM
5 | CC[C@H](CCN(CC)CC)OC(=O)NCc1cccc(NC(=O)Nc2ccc(-c3cnco3)c(OC)c2)c1 [Compound 92] | 100 to 1000 nM
6 | COc1cc(NC(=O)Nc2cccc(CNC(=O)OCCCOP(=O)(O)O)c2)ccc1-c1cnco1 [Compound 97] | < 100 nM
7 | COc1cc(NC(=O)Nc2cccc(CNC(=O)O[C@H](CN3CCCC3)c3ccccc3)c2)ccc1-c1cnco1 [Compound 98] | 100 to 1000 nM
8 | COc1cc(NC(=O)Nc2cccc(CNC(=O)O[C@H](CN3CCCCC3)c3ccccc3)c2)ccc1-c1cnco1 [Compound 99] | 100 to 1000 nM
9 | CCC(OC(=O)NCc1cccc(NC(=O)Nc2ccc(-c3cnco3)c(OC)c2)c1)C(C)(C)C#N (stereo not drawn) [Compound 100] | 100 to 1000 nM
10 | CC[C@@H](CCC#N)OC(=O)NCc1cccc(NC(=O)Nc2ccc(-c3cnco3)c(OC)c2)c1 [Compound 101] | < 100 nM
11 | CC[C@@H](CCN(CC)CC)OC(=O)NCc1cccc(NC(=O)Nc2ccc(-c3cnco3)c(OC)c2)c1 [Compound 102] | 100 to 1000 nM
12 | CCC(OC(=O)NCc1cccc(NC(=O)Nc2ccc(-c3cnco3)c(OC)c2)c1)C1(C#N)CC1 (stereo not drawn) [Compound 103] | 100 to 1000 nM
13 | COc1cc(NC(=O)Nc2cccc(CNC(=O)OC(CC#N)C3CC3)c2)ccc1-c1cnco1 (stereo not drawn) [Compound 104] | < 100 nM
14 | CCCN(CCC(OC(=O)NCc1cccc(NC(=O)Nc2ccc(-c3cnco3)c(OC)c2)c1)c1ccccc1)C(C)C (stereo not drawn) [Compound 107] | 100 to 1000 nM
15 | CCCN(C[C@@H](OC(=O)NCc1cccc(NC(=O)Nc2ccc(-c3cnco3)c(OC)c2)c1)c1ccccc1)C(C)C [Compound 108] | 100 to 1000 nM
16 | COc1cc(NC(=O)Nc2cccc(CNC(=O)O[C@H](CN(CC(C)C)C(C)C)c3ccccc3)c2)ccc1-c1cnco1 [Compound 109] | 100 to 1000 nM
17 | COc1cc(NC(=O)Nc2cccc(CNC(=O)O[C@H](CN(CC3CC3)C(C)C)c3ccccc3)c2)ccc1-c1cnco1 [Compound 110] | 100 to 1000 nM
18 | CCCN(CC(C)C)CC(OC(=O)NCc1cccc(NC(=O)Nc2ccc(-c3cnco3)c(OC)c2)c1)c1ccccc1 (stereo not drawn) [Compound 112] | > 1000 nM
19 | CCCN(CCC)CC(OC(=O)NCc1cccc(NC(=O)Nc2ccc(-c3cnco3)c(OC)c2)c1)c1ccccc1 (stereo not drawn) [Compound 113] | > 1000 nM
20 | CCCN(CC1CC1)CC(OC(=O)NCc1cccc(NC(=O)Nc2ccc(-c3cnco3)c(OC)c2)c1)c1ccccc1 (stereo not drawn) [Compound 114] | > 1000 nM

Same assay, conditions: read-out: T-cells (IC50)

Row | Structure (SMILES) | IC50
21 | CC[C@H](CCO)OC(=O)NCc1cccc(NC(=O)Nc2ccc(-c3cnco3)c(OC)c2)c1 [Compound 68] | 100 to 1000 nM
22 | CC[C@@H](CCO)OC(=O)NCc1cccc(NC(=O)Nc2ccc(-c3cnco3)c(OC)c2)c1 [Compound 69] | 100 to 1000 nM
23 | COc1cc(NC(=O)Nc2cccc(CNC(=O)OC3COCC3OCC(=O)OC(C)(C)C)c2)ccc1-c1cnco1 (stereo not drawn) [Compound 70] | > 1000 nM
24 | COc1cc(NC(=O)Nc2cccc(CNC(=O)OC3COCC3OCC(=O)OC(C)(C)C)c2)ccc1-c1cnco1 (stereo not drawn) [Compound 72] | 100 to 1000 nM
25 | COc1cc(NC(=O)Nc2cccc(CNC(=O)OC3COCC3OCC(=O)O)c2)ccc1-c1cnco1 (stereo not drawn) [Compound 73] | > 1000 nM
26 | COc1cc(NC(=O)Nc2cccc(CNC(=O)OC3COCC3OCC#N)c2)ccc1-c1cnco1 (stereo not drawn) [Compound 76] | < 100 nM

What follows are molecules tested on human PBMC B cells (assay: cells). Conditions: Homo sapiens, 72 h, read-out: B-cells (IC50).
Type: cell-based

Row | Structure (SMILES) | IC50
27 | CCC(CN(CC)CC)OC(=O)NCc1cccc(NC(=O)Nc2ccc(-c3cnco3)c(OC)c2)c1 (stereo not drawn) [Compound 87] | < 100 nM
28 | COc1cc(NC(=O)Nc2cccc(CNC(=O)O[C@@H](CO)CSC)c2)ccc1-c1cnco1 [Compound 88] | 100 to 1000 nM
29 | COc1cc(NC(=O)Nc2cccc(CNC(=O)OC(CCC#N)C(F)(F)F)c2)ccc1-c1cnco1 (stereo not drawn) [Compound 90] | 100 to 1000 nM
30 | CCC(C[N+]1([O-])CCS(=O)(=O)CC1)OC(=O)NCc1cccc(NC(=O)Nc2ccc(-c3cnco3)c(OC)c2)c1 (stereo not drawn) [Compound 91] | > 1000 nM
31 | CC[C@H](CCN(CC)CC)OC(=O)NCc1cccc(NC(=O)Nc2ccc(-c3cnco3)c(OC)c2)c1 [Compound 92] | 100 to 1000 nM
32 | COc1cc(NC(=O)Nc2cccc(CNC(=O)OCCCOP(=O)(O)O)c2)ccc1-c1cnco1 [Compound 97] | < 100 nM
33 | COc1cc(NC(=O)Nc2cccc(CNC(=O)O[C@H](CN3CCCC3)c3ccccc3)c2)ccc1-c1cnco1 [Compound 98] | 100 to 1000 nM
34 | COc1cc(NC(=O)Nc2cccc(CNC(=O)O[C@H](CN3CCCCC3)c3ccccc3)c2)ccc1-c1cnco1 [Compound 99] | 100 to 1000 nM
35 | CCC(OC(=O)NCc1cccc(NC(=O)Nc2ccc(-c3cnco3)c(OC)c2)c1)C(C)(C)C#N (stereo not drawn) [Compound 100] | 100 to 1000 nM
36 | CC[C@@H](CCC#N)OC(=O)NCc1cccc(NC(=O)Nc2ccc(-c3cnco3)c(OC)c2)c1 [Compound 101] | < 100 nM
37 | CC[C@@H](CCN(CC)CC)OC(=O)NCc1cccc(NC(=O)Nc2ccc(-c3cnco3)c(OC)c2)c1 [Compound 102] | 100 to 1000 nM
38 | CCC(OC(=O)NCc1cccc(NC(=O)Nc2ccc(-c3cnco3)c(OC)c2)c1)C1(C#N)CC1 (stereo not drawn) [Compound 103] | < 100 nM
39 | COc1cc(NC(=O)Nc2cccc(CNC(=O)OC(CC#N)C3CC3)c2)ccc1-c1cnco1 (stereo not drawn) [Compound 104] | < 100 nM
40 | CCCN(CCC(OC(=O)NCc1cccc(NC(=O)Nc2ccc(-c3cnco3)c(OC)c2)c1)c1ccccc1)C(C)C (stereo not drawn) [Compound 107] | 100 to 1000 nM
41 | CCCN(C[C@@H](OC(=O)NCc1cccc(NC(=O)Nc2ccc(-c3cnco3)c(OC)c2)c1)c1ccccc1)C(C)C [Compound 108] | < 100 nM
42 | COc1cc(NC(=O)Nc2cccc(CNC(=O)O[C@H](CN(CC(C)C)C(C)C)c3ccccc3)c2)ccc1-c1cnco1 [Compound 109] | 100 to 1000 nM
43 | COc1cc(NC(=O)Nc2cccc(CNC(=O)O[C@H](CN(CC3CC3)C(C)C)c3ccccc3)c2)ccc1-c1cnco1 [Compound 110] | < 100 nM
44 | CCCN(CC(C)C)CC(OC(=O)NCc1cccc(NC(=O)Nc2ccc(-c3cnco3)c(OC)c2)c1)c1ccccc1 (stereo not drawn) [Compound 112] | > 1000 nM
45 | CCCN(CCC)CC(OC(=O)NCc1cccc(NC(=O)Nc2ccc(-c3cnco3)c(OC)c2)c1)c1ccccc1 (stereo not drawn) [Compound 113] | > 1000 nM
46 | CCCN(CC1CC1)CC(OC(=O)NCc1cccc(NC(=O)Nc2ccc(-c3cnco3)c(OC)c2)c1)c1ccccc1 (stereo not drawn) [Compound 114] | > 1000 nM

Same assay, conditions: read-out: B-cells (IC50)

Row | Structure (SMILES) | IC50
47 | CC[C@H](CCO)OC(=O)NCc1cccc(NC(=O)Nc2ccc(-c3cnco3)c(OC)c2)c1 [Compound 68] | 100 to 1000 nM
48 | CC[C@@H](CCO)OC(=O)NCc1cccc(NC(=O)Nc2ccc(-c3cnco3)c(OC)c2)c1 [Compound 69] | 100 to 1000 nM
49 | COc1cc(NC(=O)Nc2cccc(CNC(=O)OC3COCC3OCC(=O)OC(C)(C)C)c2)ccc1-c1cnco1 (stereo not drawn) [Compound 70] | > 1000 nM
50 | COc1cc(NC(=O)Nc2cccc(CNC(=O)OC3COCC3OCC(=O)OC(C)(C)C)c2)ccc1-c1cnco1 (stereo not drawn) [Compound 72] | 100 to 1000 nM
51 | COc1cc(NC(=O)Nc2cccc(CNC(=O)OC3COCC3OCC(=O)O)c2)ccc1-c1cnco1 (stereo not drawn) [Compound 73] | > 1000 nM
52 | COc1cc(NC(=O)Nc2cccc(CNC(=O)OC3COCC3OCC#N)c2)ccc1-c1cnco1 (stereo not drawn) [Compound 76] | < 100 nM

These molecules were tested against IMPDH human type II (Homo sapiens, UniProt P12268) (assay: biochemical). Conditions: read-out: Ki.

Row | Structure (SMILES) | Ki
53 | CC[C@H](CCO)OC(=O)NCc1cccc(NC(=O)Nc2ccc(-c3cnco3)c(OC)c2)c1 [Compound 68] | < 10 nM
54 | CC[C@@H](CCO)OC(=O)NCc1cccc(NC(=O)Nc2ccc(-c3cnco3)c(OC)c2)c1 [Compound 69] | < 10 nM
55 | COc1cc(NC(=O)Nc2cccc(CNC(=O)OC3COCC3OCC(=O)OC(C)(C)C)c2)ccc1-c1cnco1 (stereo not drawn) [Compound 70] | < 10 nM
56 | COc1cc(NC(=O)Nc2cccc(CNC(=O)OC3COCC3OCC(=O)OC(C)(C)C)c2)ccc1-c1cnco1 (stereo not drawn) [Compound 72] | < 10 nM
57 | COc1cc(NC(=O)Nc2cccc(CNC(=O)OC3COCC3OCC(=O)O)c2)ccc1-c1cnco1 (stereo not drawn) [Compound 73] | < 10 nM
58 | COc1cc(NC(=O)Nc2cccc(CNC(=O)OC3COCC3OCC#N)c2)ccc1-c1cnco1 (stereo not drawn) [Compound 76] | < 10 nM
59 | CCC(CN(CC)CC)OC(=O)NCc1cccc(NC(=O)Nc2ccc(-c3cnco3)c(OC)c2)c1 (stereo not drawn) [Compound 87] | < 10 nM
60 | COc1cc(NC(=O)Nc2cccc(CNC(=O)O[C@@H](CO)CSC)c2)ccc1-c1cnco1 [Compound 88] | < 10 nM
61 | COc1cc(NC(=O)Nc2cccc(CNC(=O)OC(CCC#N)C(F)(F)F)c2)ccc1-c1cnco1 (stereo not drawn) [Compound 90] | < 10 nM
62 | CCC(C[N+]1([O-])CCS(=O)(=O)CC1)OC(=O)NCc1cccc(NC(=O)Nc2ccc(-c3cnco3)c(OC)c2)c1 (stereo not drawn) [Compound 91] | < 10 nM
63 | CC[C@H](CCN(CC)CC)OC(=O)NCc1cccc(NC(=O)Nc2ccc(-c3cnco3)c(OC)c2)c1 [Compound 92] | < 10 nM
64 | COc1cc(NC(=O)Nc2cccc(CNC(=O)OCCCOP(=O)(O)O)c2)ccc1-c1cnco1 [Compound 97] | 10 to 50 nM
65 | COc1cc(NC(=O)Nc2cccc(CNC(=O)O[C@H](CN3CCCC3)c3ccccc3)c2)ccc1-c1cnco1 [Compound 98] | 10 to 50 nM
66 | COc1cc(NC(=O)Nc2cccc(CNC(=O)O[C@H](CN3CCCCC3)c3ccccc3)c2)ccc1-c1cnco1 [Compound 99] | 10 to 50 nM
67 | CCC(OC(=O)NCc1cccc(NC(=O)Nc2ccc(-c3cnco3)c(OC)c2)c1)C(C)(C)C#N (stereo not drawn) [Compound 100] | 10 to 50 nM
68 | CC[C@@H](CCC#N)OC(=O)NCc1cccc(NC(=O)Nc2ccc(-c3cnco3)c(OC)c2)c1 [Compound 101] | < 10 nM
69 | CC[C@@H](CCN(CC)CC)OC(=O)NCc1cccc(NC(=O)Nc2ccc(-c3cnco3)c(OC)c2)c1 [Compound 102] | < 10 nM
70 | CCC(OC(=O)NCc1cccc(NC(=O)Nc2ccc(-c3cnco3)c(OC)c2)c1)C1(C#N)CC1 (stereo not drawn) [Compound 103] | > 50 nM
71 | COc1cc(NC(=O)Nc2cccc(CNC(=O)OC(CC#N)C3CC3)c2)ccc1-c1cnco1 (stereo not drawn) [Compound 104] | 10 to 50 nM
72 | CCCN(CCC(OC(=O)NCc1cccc(NC(=O)Nc2ccc(-c3cnco3)c(OC)c2)c1)c1ccccc1)C(C)C (stereo not drawn) [Compound 107] | > 50 nM
73 | CCCN(C[C@@H](OC(=O)NCc1cccc(NC(=O)Nc2ccc(-c3cnco3)c(OC)c2)c1)c1ccccc1)C(C)C [Compound 108] | > 50 nM
74 | COc1cc(NC(=O)Nc2cccc(CNC(=O)O[C@H](CN(CC(C)C)C(C)C)c3ccccc3)c2)ccc1-c1cnco1 [Compound 109] | > 50 nM
75 | COc1cc(NC(=O)Nc2cccc(CNC(=O)O[C@H](CN(CC3CC3)C(C)C)c3ccccc3)c2)ccc1-c1cnco1 [Compound 110] | > 50 nM
76 | CCCN(CC(C)C)CC(OC(=O)NCc1cccc(NC(=O)Nc2ccc(-c3cnco3)c(OC)c2)c1)c1ccccc1 (stereo not drawn) [Compound 112] | > 50 nM
77 | CCCN(CCC)CC(OC(=O)NCc1cccc(NC(=O)Nc2ccc(-c3cnco3)c(OC)c2)c1)c1ccccc1 (stereo not drawn) [Compound 113] | > 50 nM
78 | CCCN(CC1CC1)CC(OC(=O)NCc1cccc(NC(=O)Nc2ccc(-c3cnco3)c(OC)c2)c1)c1ccccc1 (stereo not drawn) [Compound 114] | > 50 nM
